Experimental findings from ChEMBL document CHEMBL1201862, “PubChem BioAssay data set” (2004) are described below.

SMILES strings stand for the structures.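 These data come from cells grown in 96-well plates and exposed to compound for 48 hours at five concentrations. GI50 = concentration required for 50% inhibition of growth.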 Calls of active or inactive are those of the source. Cut-off read from the data, not from the text of the source: active = GI50 up to about 1.1 µM and inactive = higher.

Test systems include SK-OV-3; M14; Malme-3M; KM12; OVCAR-5; SK-MEL-2; HOP-62; K562; MOLT-4; U-251; IGROV-1; EKVX; SK-MEL-28; SN12C; SF-295.
Holding throughout (assay): NCI anticancer screen, dose series, 48 h

For `O=[N+]([O-])c1cccnc1S(=O)(=O)c1ccccc1`, the GI50 was 20.5 µM (inactive) in the assay with SK-OV-3; 9.4 µM (inactive) in the assay on M14; 11.1 µM (inactive) in the assay with Malme-3M; 19.6 µM (inactive) in the assay with KM12; 15.8 µM (inactive) in the assay with OVCAR-5; 16.2 µM (inactive) with SK-MEL-2. For the same compound, the GI50 in the assay on HOP-62 was 17.3 µM (inactive); in the assay with K562, 3.45 µM (inactive); in the assay on MOLT-4, 2.84 µM (inactive); in the assay with U-251, 8.95 µM (inactive); with IGROV-1, 8.13 µM (inactive); in the assay with EKVX, 6.4 µM (inactive). Moreover, the values for the GI50 in the assay with SK-MEL-28, in the assay on SN12C and in the assay on SF-295 were 20 µM (inactive), 9.2 µM (inactive) and 18.5 µM (inactive), respectively.
With `O=C(O)Cn1c(=O)[nH]c(=O)c2[nH]cnc21`, the GI50 with SK-OV-3, in the assay with M14, with Malme-3M, in the assay on KM12, in the assay with OVCAR-5 and in the assay on SK-MEL-2 was > 100 µM (inactive) in each case. Also, the GI50 in the assay with HOP-62, in the assay with K562, in the assay on MOLT-4, in the assay on U-251, in the assay on IGROV-1 and in the assay on EKVX was > 100 µM (inactive) in each case. The GI50 in the assay with SK-MEL-28 and in the assay with SN12C was > 100 µM (inactive) each time.
Regarding `COC(=O)N/N=C(\C)C(CN1CCCCC1)C(C1=C(O)c2ccccc2OC1)c1ccccc1` (stereo unspecified), the GI50 with SK-OV-3, in the assay on M14, with Malme-3M, in the assay on KM12, in the assay with OVCAR-5 and in the assay on SK-MEL-2 was > 100 µM (inactive) throughout. For the same compound, the GI50 in the assay with HOP-62 is > 100 µM (inactive); in the assay on K562 it was > 100 µM (inactive); with MOLT-4 it was > 100 µM (inactive); with U-251, 43.1 µM (inactive); in the assay on IGROV-1, > 100 µM (inactive); in the assay on EKVX it was > 100 µM (inactive). The GI50 in the assay with SK-MEL-28, with SN12C and with SF-295 was > 100 µM (inactive) each time.
Consider `C/C(=C\CNc1ncnc2c1ncn2C1CCCCO1)COP(=O)(O)O` (stereo unspecified), for which the GI50 in the assay with SK-OV-3, in the assay with M14, in the assay on Malme-3M, in the assay with KM12, with OVCAR-5 and in the assay with SK-MEL-2 was > 100 µM (inactive) each time. For the same compound, the GI50 with HOP-62, with K562, with MOLT-4, in the assay with U-251, with IGROV-1 and in the assay on EKVX was > 100 µM (inactive) in each case. The GI50 in the assay on SK-MEL-28, in the assay with SN12C and in the assay on SF-295 was > 100 µM (inactive) throughout.
Take `CC(C)(C)c1ccc2c(c1)C(O)(c1ccccc1)c1cc(C(C)(C)C)ccc1C2(O)C(F)(F)F` (stereo unspecified): the GI50 in the assay with SK-OV-3 was 3.24 µM (inactive); with M14, 1.92 µM (inactive); with Malme-3M, 2.51 µM (inactive); in the assay on KM12, 1.93 µM (inactive); in the assay with OVCAR-5, 1.66 µM (inactive); with SK-MEL-2 it was 1.76 µM (inactive). The GI50 in the assay with HOP-62 was 1.29 µM (inactive); in the assay on K562, 2.56 µM (inactive); in the assay on MOLT-4, 1.77 µM (inactive); in the assay with U-251, 1.81 µM (inactive); in the assay on IGROV-1 it was 2.15 µM (inactive); in the assay on EKVX, 3.03 µM (inactive). In addition, the GI50 is 2.09 µM (inactive) with SK-MEL-28, 1.76 µM (inactive) in the assay with SN12C and 1.43 µM (inactive) in the assay on SF-295.
Turning to `O=c1[nH]c(=O)n(C2CC(O)C(CO)O2)cc1C#Cc1ccc(F)cc1` (stereo unspecified), the GI50 in the assay with SK-OV-3, in the assay on M14, in the assay with Malme-3M, in the assay with KM12, in the assay on OVCAR-5 and with SK-MEL-2 was > 100 µM (inactive) throughout. Further, the GI50 with HOP-62, in the assay with K562, in the assay with MOLT-4, in the assay on U-251, with IGROV-1 and in the assay with EKVX was > 100 µM (inactive) throughout. Moreover, the GI50 in the assay with SK-MEL-28, in the assay on SN12C and in the assay with SF-295 was > 100 µM (inactive) in each case.
In the case of `N=C(N)NNC(=O)CCn1[nH]c(=O)c(Cl)c(Cl)c1=O`, the GI50 in the assay on SK-OV-3, with M14, in the assay on Malme-3M, with KM12, in the assay on OVCAR-5 and in the assay with SK-MEL-2 was > 100 µM (inactive) in each case. Besides, the GI50 in the assay with HOP-62, in the assay on K562, with MOLT-4, in the assay on U-251, with IGROV-1 and in the assay on EKVX was > 100 µM (inactive) each time. Moreover, the GI50 in the assay on SK-MEL-28, in the assay with SN12C and with SF-295 was > 100 µM (inactive) each time.
Consider `C[n+]1c2ccccc2cc2c(CNC(CCCNC(=N)N)C(=O)O)cccc21` (stereo unspecified), for which the GI50 was 1.99 µM (inactive) in the assay on SK-OV-3; 3.31 µM (inactive) with M14; 2.05 µM (inactive) in the assay on Malme-3M; 0.448 µM (active) with KM12; 4.5 µM (inactive) in the assay on OVCAR-5; 4.03 µM (inactive) in the assay on SK-MEL-2. In addition, the GI50 is 2.7 µM (inactive) in the assay on HOP-62; 0.22 µM (active) with K562; 0.208 µM (active) with MOLT-4; 1.61 µM (inactive) in the assay with U-251; 7.4 µM (inactive) with IGROV-1; 4.66 µM (inactive) with EKVX. In addition, the GI50 was 1.34 µM (inactive) in the assay with SK-MEL-28, 0.65 µM (active) in the assay on SN12C and 3.17 µM (inactive) in the assay with SF-295.
In the case of `O=C1[C@@H]2C(c3ccncc3)=NO[C@@H]2C(=O)N1c1ccc(Cc2ccc(N3C(=O)[C@H]4C(c5ccncc5)=NO[C@H]4C3=O)cc2)cc1`, the GI50 was > 100 µM (inactive) with SK-OV-3; > 100 µM (inactive) in the assay on M14; 99.1 µM (inactive) in the assay on Malme-3M; > 100 µM (inactive) with KM12; > 100 µM (inactive) in the assay with OVCAR-5; > 100 µM (inactive) in the assay on SK-MEL-2. In addition, the GI50 in the assay on HOP-62, with K562, with MOLT-4, in the assay with U-251, with IGROV-1 and in the assay with EKVX was > 100 µM (inactive) throughout. Further, the GI50 with SK-MEL-28, in the assay with SN12C and with SF-295 was > 100 µM (inactive) in each case.
For `O=C(Nc1ccn(CCI)c(=O)n1)c1ccccc1`, the GI50 in the assay with SK-OV-3, in the assay with M14, with Malme-3M, in the assay with KM12, with OVCAR-5 and in the assay on SK-MEL-2 was > 100 µM (inactive) in each case. Moreover, the GI50 in the assay on HOP-62, in the assay with K562, in the assay with U-251, in the assay on IGROV-1, in the assay on EKVX and with SK-MEL-28 was > 100 µM (inactive) in each case. The GI50 in the assay on SN12C and with SF-295 was > 100 µM (inactive) each time.
Take `CC(O)C(N/C=C1/N=C(c2ccccc2)OC1=O)C(=O)O` (stereo unspecified): the GI50 in the assay with SK-OV-3, in the assay on M14, in the assay on Malme-3M, in the assay with KM12, in the assay with OVCAR-5 and with SK-MEL-2 was > 100 µM (inactive) throughout. In addition, the GI50 in the assay with HOP-62, in the assay with K562, with U-251, in the assay on IGROV-1, in the assay with EKVX and in the assay with SK-MEL-28 was > 100 µM (inactive) in each case. The GI50 in the assay on SF-295 was > 100 µM (inactive).
As to `CSc1nc(O)c2cn(Cc3ccccc3)nc2n1`, the GI50 is > 100 µM (inactive) in the assay with SK-OV-3; > 91.6 µM (inactive) with M14; > 100 µM (inactive) in the assay on Malme-3M; > 100 µM (inactive) with KM12; > 100 µM (inactive) with OVCAR-5; > 100 µM (inactive) with SK-MEL-2. For the same compound, the GI50 was > 100 µM (inactive) with HOP-62; 77.8 µM (inactive) with K562; > 100 µM (inactive) in the assay on MOLT-4; > 100 µM (inactive) with U-251; > 100 µM (inactive) in the assay with IGROV-1; > 100 µM (inactive) in the assay on EKVX. The GI50 with SK-MEL-28, in the assay with SN12C and in the assay on SF-295 was > 100 µM (inactive) each time.
As to `CCOC(=O)c1nc(C)oc1C(F)(F)F`, the GI50 with SK-OV-3, with M14, with Malme-3M, in the assay on KM12, in the assay on OVCAR-5 and with SK-MEL-2 was > 100 µM (inactive) each time. For the same compound, the GI50 in the assay on HOP-62, in the assay on K562, with MOLT-4, in the assay with U-251, in the assay on IGROV-1 and with EKVX was > 100 µM (inactive) each time. In addition, the GI50 with SK-MEL-28, in the assay with SN12C and in the assay on SF-295 was > 100 µM (inactive) each time.
